# Experimental data taken from patent publication US5763208A, “Oligonucleotides and their analogs capable of passive cell membrane permeation” (Gilead Sciences, Inc., priority 1996, dated 1998).
# Like-named read-outs stand apart in the source and are kept apart here.
# Assays:
# [1] = cited from earlier work
# [2] = pH dependence of fluorescence of fluorescein; format: physicochemical
# Text: A preferred fluor is fluorescein.
# [3] = tested on: most of the cell types tested
# Description: Within 15 min after washing the dye away from the exterior of the cells, the intracellular pool of the dye is pumped out, either by an organic anion pump mechanism or by diffusion.
# The cell staining assay utilized various cell lines and included P388D1 (mouse macrophage), HEPG2 (human liver), CV1 (monkey epithelial), ccd50sk (untransformed human fibroblast), Rat2 (rat fibroblast), MDCK (kidney cells), L6 (rat myoblast), L cells (mouse fibroblast), HeLa (human adenocarcinoma), skov3 (human ovarian adenocarcinoma), and skbr3 (human breast adenocarcinoma) cells. Other cell lines that were used included Jurkat (human T cell), H9 (human T cell), NIH3T3 (mouse fibroblast), HL60 (human T cell), and H4 (rat liver). All cell lines are commercially available from the American Type Culture Collection, Rockville, Md.
# Cells were grown on 25 mm-#1 coverslips in media containing 25 mM HEPES, pH 7.3, (which helps maintain pH on the microscope) without phenol red (which can lead to high background fluorescence when working with living cells). Coverslips were used so that the high numerical aperture oil-immersion lenses on the microscope could be used. The coverslips were mounted onto "viewing chambers": 6-well petri dishes which have 22 mm holes drilled into the bottom. […]
# [4] = known values of standard compounds used for the standard curve (Veith et al.)
compound,measurement,setting,value
Nc1ccccc1[N+](=O)[O-] [o-nitroaniline],Log Poct,[1]; [4],1.44
O=C1OC2(c3ccc(O)cc3Oc3cc(O)ccc32)c2ccccc21 [fluorescein],net charge,[2]; pH 5.0,net neutral charge
same,fluorescence at pH 5.0 relative to pH 7.5,[2]; pH 5.0 vs pH 7.5,greater than an order of magnitude less fluorescent
same,net charge,[2]; pH 7.5,net negative charge
same,time in which the intracellular pool of the dye is pumped out,[3],≤ 15 min
same,cell permeation of dye,[3]; not told,permeant to most of the cell types tested
Nc1ccccc1O [2-aminophenol],Log Poct,[1]; octanol/water,0.62
Nc1ccccc1 [aniline],Log Poct,[1]; [4],0.9
Nc1cccc(O)c1 [3-aminophenol],Log Poct,[1]; [4],0.17
